# Laboratory results from patent US6444684B1 (priority 1993, dated 2002).
# Columns and labels:
# [1] = test system: K/1 = ras^K Transformed NRKE Cells; settings: for Differential Index K/1: K/1 = ras^K transformed NRKE cells, compared with normal NRKE cells
# [2] = test system: H/1.2 = ras^H Transformed NRKE Cells; settings: H/1.2 = ras^H transformed NRKE cells, compared with normal NRKE cells
# [3] = test system: N/4.2-NRKE transformed by the human ras^N gene; settings: N/4.2 = ras^N transformed NRK cells, compared with normal NRKE cells
# [4] = test system: 3LL = Lewis Lung Carcinoma Cells; settings: 3LL = Lewis lung carcinoma cells, compared with normal NRKE cells
# HIV-RT = HIV-RT (Human immunodeficiency virus type 1 group M subtype B, UniProt P03366); assay: HIV-RT inhibition by AZT-TP, lavendamycin analogs and their combinations; type: biochemical; set-up: unit of the concentration uncertain; settings: LA Conc. 0 (unit uncertain); for % inh. ave.: average of three trials
# Source text: AZT-TP was used for these in vitro studies since AZT is naturally phosphorylated in vivo.
# The results of these tests are given in Table XVIII and XIX below, where the percent inhibition of HIV-RT activity is reported for three different trials and then averaged in the seventh column. […] .
# Leukemia cell lines = assay: NCI in vitro anticancer screen (SRB), leukemia subpanel; settings: 48 hours exposure; average percent growth over the cell lines
# Procedure: (§1) Compounds chosen for the program are initially tested in an in vitro anticancer screen. A total of fifty-five human tumor cell lines, derived from nine cancer types (lung, colon, melanoma, renal, ovarian, brain, prostate, breast and leukemia), are used in this screen. The tumor cells are inoculated over a series of standard 96-well microtiter plates on day 0. These cells are then preincubated on the microtiter plates for 24 hours. The test compounds are added to the wells in five 10-fold dilutions starting from the highest soluble concentration. Each compound is tested against every cell line in the panel. The compounds are incubated for 48 hours with the tumor cell lines. At the termination of the assay, the cells are fixed in situ, washed, and dried. Sulforhodamine B (SRB), a pink anionic dye that binds to the basic amino acids of trichloroacetic acid-fixed cells, is added. The cells are washed again, and the remaining dye is a function of the adherent cell mass. The bound stain is solubilized and measured spectrophotometrically. The data are entered from automatic reading devices into a computer for subsequent storage and analysis.
# (§2) The measured effect of each test compound on the cell lines is calculated according to one or the other of the following two expressions:
# (§3) If (Mean ODtest−Mean ODtzero)□0, then PG=100×(Mean ODtest−Mean ODtzero)/(Mean ODctrl−Mean ODtzero);
# (§4) If (Mean ODtest−Mean ODtzero)<0, then PG=100×(Mean ODtest−Mean ODtzero)/Meantzero;
# (§5) First, a data sheet is provided which lists, for each cell line, the Mean ODtzero, the Mean ODctrl, the Mean ODtest for each of the five concentrations, the calculated PGs for each concentration, and the response parameters G150, TGI, and LC50.
# (§6) Third, mean graphs at each of the principal response parameters (GI50, TGI, and LC50) are provided. […] Since the bar scale is logarithmic, a bar two units to the right implies the compound achieved the response parameter (e.g., GI50) for the cell line at a concentration 1/100 the mean concentration required over all cell lines, and thus the cell line is unusually sensitive to that compound. Bars extending to the left correspondingly imply sensitivity less than the mean. Thus, the mean graphs facilitate visual scanning of data for potential patterns of selectivity for particular cell lines or for particular subpanels with respect to a selected response parameter.
# Melanoma cell lines = assay: NCI in vitro anticancer screen (SRB), melanoma subpanel; settings: 48 hours exposure; average percent growth over the cell lines
# Procedure: as §1, §2, §3, §4, §5, §6
# CNS Cancer cell lines = assay: NCI in vitro anticancer screen (SRB), CNS cancer subpanel; settings: 48 hours exposure; average percent growth over the cell lines
# Procedure: as §1, §2, §3, §4, §5, §6
# Colon Cancer cell lines = assay: NCI in vitro anticancer screen (SRB), colon cancer subpanel; settings: 48 hours exposure; average percent growth over the cell lines
# Procedure: as §1, §2, §3, §4
# Renal Cancer cell lines = assay: NCI in vitro anticancer screen (SRB), renal cancer subpanel; settings: 48 hours exposure; average percent growth over the cell lines
# Procedure: as §1, §2, §3, §4, §5, §6
# Breast Cancer cell lines = assay: NCI in vitro anticancer screen (SRB), breast cancer subpanel; settings: 48 hours exposure; average percent growth over the cell lines
# Procedure: as §1, §2, §3, §4
# [5] = test system: Ovarian Cancer cell lines; assay: NCI in vitro anticancer screen (SRB), ovarian cancer subpanel; settings: 48 hours exposure; average percent growth over the cell lines
# Procedure: as §1, §2, §3, §4
# [6] = test system: Prostate Cancer cell lines; assay: NCI in vitro anticancer screen (SRB), prostate cancer subpanel; settings: 48 hours exposure; average percent growth over the cell lines
# Procedure: as §1, §2, §3, §4
# [7] = test system: Non-Small Cell Lung Cancer cell lines; assay: NCI in vitro anticancer screen (SRB), non-small cell lung cancer subpanel; settings: 48 hours exposure; average percent growth over the cell lines
# Procedure: as §1, §2, §3, §4, §5, §6
# [8] = test system: K/1-NRKE tumor (ras^K-transformed NRKE cells); settings: mouse, in vivo
# [9] = AZT-TP Conc. 0.01 (unit uncertain)
# [10] = AZT-TP Conc. 0.05 (unit uncertain)
SMILES,Differential Index K/1 [1],Differential Index H/1.2 [2],Differential Index N/4.2 [3],Differential Index 3LL [4],also measured
"CCCC(=O)NC1=CC(=O)c2ccc(-c3nc(C(=O)OC)c(C)c4c3[nH]c3ccccc34)nc2C1=O [Compound 11, 7-N-BUTYRYLLAVENDAMYCIN METHYL ESTER]",0.97,0.80,0.76,0.39,–
"CC(C)CCOC(=O)c1cc2c([nH]c3ccccc32)c(-c2ccc3c(n2)C(=O)C(NC(=O)CCl)=CC3=O)n1 [Compound 9, 7-N-CHLOROACETYLDEMETHYLLAVENDAMYCIN ISOAMYL ESTER]",2.41,1.02,1.13,0.42,–
"Cc1cn([C@H]2C[C@H](N=[N+]=[N-])[C@@H](COP(=O)(O)OP(=O)(O)OP(=O)(O)O)O2)c(=O)[nH]c1=O [AZT-TP, 3′-azido-3′-deoxythymidine 5′-triphosphate, reference compound]",–,–,–,–,% inh. Trial 1 (HIV-RT; [9]): 27%; % inh. Trial 2 (HIV-RT; [9]): 27%; % inh. Trial 3 (HIV-RT; [9]): 29%; % inh. ave. (HIV-RT; [9]): 27.7%; % inh. Trial 1 (HIV-RT; [10]): 51%; % inh. Trial 2 (HIV-RT; [10]): 52%; % inh. Trial 3 (HIV-RT; [10]): 49%; % inh. ave. (HIV-RT; [10]): 50.7%
"CCCCCCCCOC(=O)c1cc2c([nH]c3ccccc32)c(-c2ccc3c(n2)C(=O)C(NC(=O)CCC)=CC3=O)n1 [Compound 14, 7-N-BUTYRYLDEMETHYLLAVENDAMYCIN OCTYL ESTER]",>10.0,>2.06,>2.2,>2.06,–
"Cc1ccc2c(n1)C(=O)C(N)=C(Cl)C2=O [Compound 59, 7-Amino-6-Chloro-2-Methylquinoline-5,8-Dione]",1.25,1.25,1.14,0.63,–
CC(=O)NC1=CC(=O)c2ccc(-c3nccc4c3[nH]c3ccccc34)nc2C1=O [Compound 6],0.91,1.00,0.82,0.13,–
"CCCCCCCCOC(=O)c1cc2c([nH]c3ccccc32)c(-c2ccc3c(n2)C(=O)C(NC=O)=CC3=O)n1 [Compound 56, 7-N-formyldemethyllavendamycin octyl ester]",>1.57,i1.00,>1.5,>1.03,Activity (Average PG for highest dose tested) Leukemia (Leukemia cell lines): −29.7%; Activity (Average PG for highest dose tested) Melanoma (Melanoma cell lines): −39.9%; Activity (Average PG for highest dose tested) CNS Cancer (CNS Cancer cell lines): −36.8%; Activity (Average PG for highest dose tested) Colon Cancer (Colon Cancer cell lines): −30.0%; Activity (Average PG for highest dose tested) Renal Cancer (Renal Cancer cell lines): −51.3%; Activity (Average PG for highest dose tested) Breast Cancer (Breast Cancer cell lines): −42.3%; Activity (Average PG for highest dose tested) Ovarian Cancer [5]: −57.3%; Activity (Average PG for highest dose tested) Prostate Cancer [6]: +14.0%; Activity (Average PG for highest dose tested) Non-Small Cell Lung Cancer [7]: −28.8%
CCCCOC(=O)c1cc2c([nH]c3ccc(OC)cc32)c(-c2ccc3c(n2)C(=O)C(NC(C)=O)=CC3=O)n1 [Compound 4],1.14,1.19,1.14,<0.75,–
CCCCOC(=O)c1cc2c([nH]c3ccccc32)c(-c2ccc3c(n2)C(=O)C(NC(=O)CCC)=CC3=O)n1 [Compound 12],1.32,1.61,0.94,0.29,–
CC(=O)NC1=CC(=O)c2ccc(-c3nc(C(=O)O)cc4c3[nH]c3ccccc34)nc2C1=O [Compound 2],2.14,1.36,1.50,0.38,Activity (Average PG for highest dose tested) Leukemia (Leukemia cell lines): −34.7%; Activity (Average PG for highest dose tested) Melanoma (Melanoma cell lines): −53.7%; Activity (Average PG for highest dose tested) CNS Cancer (CNS Cancer cell lines): −26.6%; Activity (Average PG for highest dose tested) Colon Cancer (Colon Cancer cell lines): −43.6%; Activity (Average PG for highest dose tested) Renal Cancer (Renal Cancer cell lines): −74.6%; Activity (Average PG for highest dose tested) Breast Cancer (Breast Cancer cell lines): −32.6%; Activity (Average PG for highest dose tested) Ovarian Cancer [5]: −62.7%; Activity (Average PG for highest dose tested) Prostate Cancer [6]: −45.5%; Activity (Average PG for highest dose tested) Non-Small Cell Lung Cancer [7]: −27.9%
"O=P1(N(CCCl)CCCl)NCCCO1 (stereo not shown) [CY, cyclophosphamide, reference compound]",–,–,–,–,"Number Dead Number Treated ([8]; female, CD1 nu/nu): 0/7; Percent Wt. Change (g) [8]: −3.0 ″ 0.09 g"
CC(C)C(=O)NC1=CC(=O)c2ccc(C=O)nc2C1=O [Compound 25],>1.5,˜1.0,˜1.0,>3.3,–
"CCCCCCCCOC(=O)c1cc2c([nH]c3ccccc32)c(-c2ccc3c(n2)C(=O)C(NC(=O)CCl)=CC3=O)n1 [Compound 10, 7-N-CHLOROACETYLDEMETHYLLAVENDAMYCIN OCTYL ESTER]",>2.2,i1.0,i1.0,i1.0,–
CC(=O)NC1=CC(=O)c2ccc(-c3nc(C(=O)OCCC(C)C)cc4c3[nH]c3ccccc34)nc2C1=O [Compound 20],–,–,–,–,"selective toxicity against ras^K oncogene bearing tumor cells as compared to the normal, non-transformed cells ([1]; LC50 NRKE divided by LC50 K/1): 18 fold; tumor growth inhibition in vivo (in words) [8]: excellent tumor growth inhibition; Activity (Average PG for highest dose tested) Leukemia (Leukemia cell lines): −4.0%; Activity (Average PG for highest dose tested) Melanoma (Melanoma cell lines): −75.2%; Activity (Average PG for highest dose tested) CNS Cancer (CNS Cancer cell lines): −49.5%; Activity (Average PG for highest dose tested) Colon Cancer (Colon Cancer cell lines): −53.0%; Activity (Average PG for highest dose tested) Renal Cancer (Renal Cancer cell lines): −56.1%; Activity (Average PG for highest dose tested) Breast Cancer (Breast Cancer cell lines): −38.6%; Activity (Average PG for highest dose tested) Ovarian Cancer [5]: −42.2%; Activity (Average PG for highest dose tested) Prostate Cancer [6]: −70.5%; Activity (Average PG for highest dose tested) Non-Small Cell Lung Cancer [7]: −19.1%"
CCCCOC(=O)c1cc2c([nH]c3ccccc32)c(-c2ccc3c(n2)C(=O)C(NC(=O)C(C)C)=CC3=O)n1 [Compound 15],2.25,1.48,1.80,1.00,–
CCCCOC(=O)c1cc2c([nH]c3ccc(F)cc32)c(-c2ccc3c(n2)C(=O)C(NC(C)=O)=CC3=O)n1 [Compound 5],1.88,0.88,0.74,0.29,–
"CCCC(=O)NC1=CC(=O)c2ccc(-c3nc(C(=O)OCCC(C)C)cc4c3[nH]c3ccccc34)nc2C1=O [Compound 13, 7-N-BUTYRYLDEMETHYLLAVENDAMYCIN ISOAMYL ESTER]",1.67,2.70,1.53,0.42,–
"CCCCCCCCOC(=O)c1cc2c([nH]c3ccccc32)c(-c2ccc3c(n2)C(=O)C(N)=CC3=O)n1 [Compound 57, demethyllavendamycin octyl ester]",–,–,–,–,Activity (Average PG for highest dose tested) Leukemia (Leukemia cell lines): +90.8%; Activity (Average PG for highest dose tested) Melanoma (Melanoma cell lines): +89.4%; Activity (Average PG for highest dose tested) CNS Cancer (CNS Cancer cell lines): +81.0%; Activity (Average PG for highest dose tested) Colon Cancer (Colon Cancer cell lines): +100.3%; Activity (Average PG for highest dose tested) Renal Cancer (Renal Cancer cell lines): +68.7%; Activity (Average PG for highest dose tested) Breast Cancer (Breast Cancer cell lines): +96.0%; Activity (Average PG for highest dose tested) Ovarian Cancer [5]: +89.3%; Activity (Average PG for highest dose tested) Prostate Cancer [6]: +94.5%; Activity (Average PG for highest dose tested) Non-Small Cell Lung Cancer [7]: +89.8%
Cc1ccc2c(n1)C(=O)C(NC(=O)C(C)C)=CC2=O [Compound 29],0.2,1.03,1.3,2.1,–
"COC(=O)c1nc(-c2ccc3c(n2)C(=O)C(NC(=O)CCl)=CC3=O)c2[nH]c3ccccc3c2c1C [Compound 7, 7-N-CHLOROACETYLLAVENDAMYCIN METHYL ESTER]",0.73,1.00,0.76,0.29,–
